Measured values published in EP4335840A1, “NEW CONTRAST AGENTS FOR USE IN DIAGNOSTIC IMAGING” (priority 2022, dated 2024).
Read-outs that look alike come from different tables or passages of the source.

How the values were obtained:
[1] = 1.5 T, 37°C, from Rohrer et al., cited from earlier work; for r1 bovine plasma: bovine plasma instead of human plasma
[2] = Complex stability (transmetallation with Zn2+, proton relaxometry); type: physicochemical; conditions: 72 hours, 2.5 mM Zn2+, 26 mM phosphate buffer, 37°C, pH 7.4; 1.41 T
Description: The used method is described elsewhere (Laurent S et al., Stability of MRI paramagnetic contrast media: a proton relaxometric protocol for transmetallation assessment. Invest Radiol. 2001 Feb;36(2):115-22). In brief: A solution containing 2.5 mmol/L of test compound and 2.5 mmol/L ZnCl2 in 26 mM phosphate buffer (KH2PO4 Merck; 1.09439.1000, #HC748513, pH 7,00), was incubated at 37°C over a period of at least 3 days. If test compounds are instable under these conditions, transmetallation during this test would lead to the formation of the Zn^2+ complex of the test item, while Gd^3+ is released and precipitated as highly insoluble GdPO4.
After 3d of incubation T1 relaxation time was observed. […] Table 2: Transmetallation stability [%] of paramagnetic contrast agents over 72 hours (2.5 mM Zn2+, 26 mM phosphate buffer, 37°C, pH 7.4).

[3] = target: T1, OATP1B1 (Homo sapiens, UniProt Q9Y6L6); test: Uptake into stable transfected OATP1B1 HEK 293 cells; type: cell-based
T1 sequence (Q9Y6L6 1-691): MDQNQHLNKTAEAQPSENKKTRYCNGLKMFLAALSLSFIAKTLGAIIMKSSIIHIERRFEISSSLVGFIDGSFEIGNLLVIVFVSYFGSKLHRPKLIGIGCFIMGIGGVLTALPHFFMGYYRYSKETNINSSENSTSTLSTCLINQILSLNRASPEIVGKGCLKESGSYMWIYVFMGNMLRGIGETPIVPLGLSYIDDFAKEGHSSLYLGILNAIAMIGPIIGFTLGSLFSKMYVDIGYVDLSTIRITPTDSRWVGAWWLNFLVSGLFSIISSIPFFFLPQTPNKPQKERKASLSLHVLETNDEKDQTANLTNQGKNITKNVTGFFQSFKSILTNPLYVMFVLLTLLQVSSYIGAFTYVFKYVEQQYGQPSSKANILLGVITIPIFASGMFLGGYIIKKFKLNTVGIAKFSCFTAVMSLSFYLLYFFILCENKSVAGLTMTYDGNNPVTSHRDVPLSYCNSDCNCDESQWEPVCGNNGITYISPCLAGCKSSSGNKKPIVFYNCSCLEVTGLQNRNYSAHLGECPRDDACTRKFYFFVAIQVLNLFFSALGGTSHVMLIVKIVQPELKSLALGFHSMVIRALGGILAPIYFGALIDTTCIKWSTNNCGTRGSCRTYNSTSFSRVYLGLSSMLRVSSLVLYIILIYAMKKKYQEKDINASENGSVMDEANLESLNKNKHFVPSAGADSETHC

[4] = Relaxivity measurements at 1.41 T in water and human plasma; type: physicochemical; conditions: 37°C, normalized to Gd
Description: Relaxivity measurements at 1.41 T were performed using a MiniSpec mq60 spectrometer (Bruker Analytik, Karlsruhe, Germany) operating at a resonance frequency of 60 MHz and a temperature of 37°C. The T1 relaxation times were determined using the standard inversion recovery (IR) method with a fixed relaxation delay of at least 5 × T1. The variable inversion time (TI) was calculated automatically by the standard software of the MiniSpec mq60 (8 steps). The T2 measurements were performed by using a Carr-Purcell-Meiboom-Gill (CPMG) pulse sequence, applying a relaxation delay of at least 5 × T1.
Each relaxivity measurement was performed using three different Gd concentrations (3 concentrations between 0.05 and 2 mM). The T1 and T2 relaxation times of the example compounds 1 to 10 were measured in different media for example in water and human plasma. Human plasma preparation: For each experiment fresh blood was taken from a volunteer using 10 mL citrate-tubes (Sarstedt S-Monovette 02.1067.001, 10 mL, Citrate). The 10 mL citrate-tubes were carefully inverted 10 times to mix blood and anticoagulant and centrifuged for 15min at 1811 g at RT (Eppendorf, Centrifuge 5810R).
The relaxivities ri (where i=1, 2) were calculated based on the measured relaxation rates Ri in water and plasma: ri = (Ri−Ri(0))/CGd [formula] where Ri(0) represent the relaxation rate of the respective solvent and CGd the concentration of the compound normalized to the Gadolinium. The Gadolinium concentrations of the investigated solutions were verified by Inductively Coupled Plasma Mass Spectrometry (ICP-MS Agilent 7500a, Waldbronn, Germany). Table 3: Relaxivities of investigated compounds in water and human plasma at 1.41 T and relaxivities of Reference compounds 1-3 (RC1-RC3) at 1.5 T in water and bovine plasma. All values are measured at 37°C and normalized to Gd and given in L mmol-1 s-1.

[5] = Water solubility in aqueous buffer; type: physicochemical
Description: The exploratory water solubility of the compounds is determined at room temperature (20°C) in 0.5 mL buffer solution (10 mM Tris-HCI, pH 7.4) in the microcentrifuge tubes (Eppendorf, 2.0 mL safe-lock caps). The solid compounds were added stepwise to the buffer solution. More substance is added once all the suspended material is dissolved until an equilibrium between undissolved and dissolved substance is reached. The suspension was mixed using a shaker (Heidolph Reax 2000) and treated 5 min in an ultrasound bath (Bandelin, Sonorex Super RK255H). The Gadolinium concentration of the test substance in the clear solution is measured by ICP-MS. Table 1: Solubilities of compounds in aqueous buffer at 20°C (pH 7.4).

[6] = test system: freshly isolated rat hepatocytes; test: Uptake into freshly isolated rat hepatocytes; conditions: rat hepatocyte uptake with OATP1B1/1B3 inhibitor Rifampicine, test item and inhibitor each 100 µM
Description: The rat hepatocytes were incubated (2.5 ·10^5 cells/well) for 2.5 to 4h in collagen coated 24-well plates (Fa. Beckton Dickinson Biocoat, cell environments, Collagen I Cellware) in Williams E-medium (Fa. Sigma W1878) in an incubator (37°C, 5% CO2 and 95% oxygen). After incubation the adherent hepatocytes were washed once with 37°C Hepes carbonate transport buffer (500 µL/well). The test items and RC1 were prepared from stock solutions (180 to 500 mM concentration) in Hepes carbonate transport buffer at pH 7.4 to reach a final concentration of 100 µmοl Gd/L. The specific uptake of the test item or RC1 into rat hepatocytes via OATP1 B1 and OATP1 B3 was challenged using a known OATP1B1/1B3 inhibitor (Rifampicine, Fa. Sigma R3501, test item and inhibitor 1:1 each 100 µM final concentration). The prepared rat hepatocyte plates were incubated with test solutions (500 µL/well) at 37°C for 10 min using a thermoshaker (Fa. Grant Bio, PHMP). Triplicates were performed for each test item. After incubating the cells were washed once with cold PBS buffer (Fa. Gibco, Dulbeccos PBS (+)). After washing the intact hepatocytes were lysed by addition of 500 µL cold 0.01 % Triton-X 100 in Millipore water for 1h. […] After 1h 500 µL of 10 nM Terbium ICP-MS standard was added in 2% nitric acid and 0.01% Triton 100 before the Gadolinium concentrations in the lysate were measured using ICP-MS (Agilent 8900, singleQuad, integr. Time 0.3 s, no gas, 5 replicates, Gd m/z 157, Tb m/z 159). As a reference standard RC1 is used in the same well plate. The hepatocyte uptake of the test compound is calculated relative to RC1 (resulting in the unit % of RC1).

[7] = target: T2, OATP1B3 (Homo sapiens, UniProt Q9NPD5); test: Uptake into stable transfected OATP1B3 HEK 293 cells; type: cell-based
T2 sequence (Q9NPD5 1-702): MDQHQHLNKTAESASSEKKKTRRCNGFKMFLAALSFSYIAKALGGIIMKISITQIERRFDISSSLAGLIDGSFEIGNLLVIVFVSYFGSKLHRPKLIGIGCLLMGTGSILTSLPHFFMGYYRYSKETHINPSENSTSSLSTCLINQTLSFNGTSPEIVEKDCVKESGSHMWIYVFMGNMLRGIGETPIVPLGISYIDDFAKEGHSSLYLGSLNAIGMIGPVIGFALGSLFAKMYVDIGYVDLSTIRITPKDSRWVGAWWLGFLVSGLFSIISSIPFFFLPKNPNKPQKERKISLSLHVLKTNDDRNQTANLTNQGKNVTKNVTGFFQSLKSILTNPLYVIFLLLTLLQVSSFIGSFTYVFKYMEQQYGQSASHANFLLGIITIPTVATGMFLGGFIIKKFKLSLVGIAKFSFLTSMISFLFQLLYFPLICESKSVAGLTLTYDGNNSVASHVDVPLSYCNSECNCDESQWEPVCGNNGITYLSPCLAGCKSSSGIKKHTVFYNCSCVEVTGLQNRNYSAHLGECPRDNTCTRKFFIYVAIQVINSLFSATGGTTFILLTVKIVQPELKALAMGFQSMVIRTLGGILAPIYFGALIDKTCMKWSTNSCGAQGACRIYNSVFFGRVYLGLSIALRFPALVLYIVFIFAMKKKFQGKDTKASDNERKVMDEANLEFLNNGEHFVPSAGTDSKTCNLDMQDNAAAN

[8] = No-observed-adverse-effect level (NOAEL), intravenous bolus; conditions: mice, intravenous bolus via tail vein, dose levels up to 2.5 mmol Gd/kg bw
[9] = in vivo; cited from earlier work
[10] = OATP1B1-HEK 293 cell uptake with Rifampicine
[11] = aqueous buffer 10 mM Tris-HCl, pH 7.4, 20°C, Gd by ICP-MS
[12] = OATP1B3-HEK 293 cell uptake with Rifampicine

## O=C([O-])CN1CCN(CC(=O)[O-])CCN([C@H](CO)[C@H](O)CO)CCN(CC(=O)[O-])CC1.[Gd+3] (racemic) [RC3, gadobutrol]
[1]
  r1 bovine plasma: 5.2 L/mmol/s
  r1 water: 3.3 L/mmol/s
[2]
  Stability (transmetallation stability, T1 relaxation rates R1n/R10): stable

## COCCOCCOCCOc1ccc(C[C@H]2CN(CC(=O)[O-])CCN(CC(=O)[O-])CCN(CC(=O)O)CCN2CC(=O)[O-])cc1.[Gd+3] [Example 1, Gadolinium-2,2',2"-[(2S)-10-(carboxymethyl)-2-(4-{2-[2-(2-methoxyethoxy)-ethoxy]ethoxy}benzyl)-1,4,7,10-tetraazacyclododecane-1,4,7-triyl]triacetate]
[3]; [10]
  Inhibition Rifampicine: 21 % inhibition
[4]
  r1 human plasma: 6.6 L/mmol/s
  r1 water: 5.1 L/mmol/s
[5]; [11]
  Solubility: > 201 mM
[6]
  Inhibition Rifampicine: 90 % inhibition
[7]; [12]
  Inhibition Rifampicine: 92 % inhibition

## CCOCCOCCOc1ccc(C[C@H]2CN(CC(=O)[O-])CCN(CC(=O)[O-])CCN(CC(=O)O)CCN2CC(=O)[O-])cc1.[Gd+3] [Example 2, Gadolinium-2,2',2"-[(2S)-10-(carboxymethyl)-2-{4-[2-(2-ethoxyethoxy)ethoxy]benzyl}-1,4,7,10-tetraazacyclododecane-1,4,7-triyl]triacetate]
[3]; [10]
  Inhibition Rifampicine: 0 % inhibition
[4]
  r1 human plasma: 5.9 L/mmol/s
  r1 water: 4.9 L/mmol/s
[5]; [11]
  Solubility: > 55 mM
[2]
  Stability (transmetallation stability, T1 relaxation rates R1n/R10): 95%
[6]
  Inhibition Rifampicine: 93 % inhibition
[7]; [12]
  Inhibition Rifampicine: 86 % inhibition

## COCCOCCOCCOc1ccc(C[C@@H]2CN(CC(=O)[O-])CCN(CC(=O)[O-])CCN(CC(=O)O)CCN2CC(=O)[O-])cc1.[Gd+3] [Example 3, Gadolinium-2,2',2"-[(2R)-10-(carboxymethyl)-2-(4-(2-[2-(2-methoxyethoxy)ethoxy]ethoxy}benzyl)-1,4,7,10-tetraazacyclododecane-1,4,7-triyl]triacetate]
[3]; [10]
  Inhibition Rifampicine: 31 % inhibition
[4]
  r1 human plasma: 6.8 L/mmol/s
  r1 water: 5.0 L/mmol/s
[5]; [11]
  Solubility: > 166 mM
[6]
  Inhibition Rifampicine: 83 % inhibition
[7]; [12]
  Inhibition Rifampicine: 84 % inhibition

## CCOCCOc1ccc(C[C@H]2CN(CC(=O)[O-])CCN(CC(=O)[O-])CCN(CC(=O)O)CCN2CC(=O)[O-])cc1.[Gd+3] [Example 4]
[3]; [10]
  Inhibition Rifampicine: 29 % inhibition
[4]
  r1 human plasma: 6.6 L/mmol/s
  r1 water: 4.8 L/mmol/s
[8]
  NOAEL: 2.50 mmol Gd/kg bw
[5]; [11]
  Solubility: > 738 mM
[6]
  Inhibition Rifampicine: 94 % inhibition
[7]; [12]
  Inhibition Rifampicine: 97 % inhibition

## CCOCCOCCOCCOc1ccc(C[C@H]2CN(CC(=O)[O-])CCN(CC(=O)[O-])CCN(CC(=O)O)CCN2CC(=O)[O-])cc1.[Gd+3] [Example 5, Gadolinium-2,2',2"-[(2S)-10-(carboxymethyl)-2-(4-{2-[2-(2-ethoxyethoxy)ethoxy]ethoxy}benzyl)-1,4,7,10-tetraazacyclododecane-1,4,7-triyl]triacetate]
[3]; [10]
  Inhibition Rifampicine: 41 % inhibition
[4]
  r1 human plasma: 5.7 L/mmol/s
  r1 water: 5.1 L/mmol/s
[5]; [11]
  Solubility: > 284 mM
[2]
  Stability (transmetallation stability, T1 relaxation rates R1n/R10): 96%
[6]
  Inhibition Rifampicine: 89 % inhibition
[7]; [12]
  Inhibition Rifampicine: 96 % inhibition

## CCOCCOCCOc1ccc(C[C@H]2CN(CC(=O)[O-])CCN(CC(=O)[O-])CCN(CC(=O)O)CCN2CC(=O)[O-])nc1.[Gd+3] [Example 6, Gadolinium 2,2',2"-[(2S)-10-(carboxymethyl)-2-({5-[2-(2-ethoxyethoxy)ethoxy]pyridin-2-yl}methyl)-1,4,7,10-tetraazacyclododecane-1,4,7-triyl]triacetate]
[3]; [10]
  Inhibition Rifampicine: 2 % inhibition
[4]
  r1 human plasma: 5.9 L/mmol/s
  r1 water: 5.3 L/mmol/s
[6]
  Inhibition Rifampicine: 91 % inhibition
[7]; [12]
  Inhibition Rifampicine: 65 % inhibition

## CCOc1ccc(CC(CN(CCN(CC(=O)[O-])CC(=O)[O-])CC(=O)[O-])N(CC(=O)[O-])CC(=O)[O-])cc1.[Gd+3].[Na+].[Na+] (stereo not shown) [RC1, gadoxetate disodium, reference compound]
[3]
  Inhibition Rifampicine: 81 % inhibition
[5]; pH 7.4
  Solubility: > 250 mM
[1]
  r1 bovine plasma: 6.9 L/mmol/s
  r1 water: 4.7 L/mmol/s
[9]
  excreted into the bile: up to 50 % of the administered dose
[6]
  Inhibition Rifampicine: 97 % inhibition
[7]
  Inhibition Rifampicine: 99 % inhibition

## O=C([O-])CN(CCN(CC(=O)[O-])CC(=O)[O-])CCN(CC(=O)[O-])C(COCc1ccccc1)C(=O)[O-].[Gd+3].[H+].[H+] (stereo not shown) [RC2, gadobenic acid]
[1]
  r1 bovine plasma: 6.3 L/mmol/s
  r1 water: 4.0 L/mmol/s
[9]
  secreted into the bile: 3-to-5%
[6]
  Inhibition Rifampicine: 79 % inhibition
